Laboratory results from patent US20240246946A1, “MODULATORS OF TREX1” (Constellation Pharmaceuticals, Inc., priority 2021, published 2024).

Legend:
[1] = biological target: T1, full length human TREX1 (Homo sapiens, UniProt Q9NSU2); experiment: hTREX1 Biochemical Assay (fluorescence, dsDNA substrate degradation); settings: biochemical, read-out: hTREX1 IC50
T1 construct: N-terminally His-Tev tagged full length human TREX1; made in house; host or cells: E. coli
T1 sequence (Q9NSU2 1-314): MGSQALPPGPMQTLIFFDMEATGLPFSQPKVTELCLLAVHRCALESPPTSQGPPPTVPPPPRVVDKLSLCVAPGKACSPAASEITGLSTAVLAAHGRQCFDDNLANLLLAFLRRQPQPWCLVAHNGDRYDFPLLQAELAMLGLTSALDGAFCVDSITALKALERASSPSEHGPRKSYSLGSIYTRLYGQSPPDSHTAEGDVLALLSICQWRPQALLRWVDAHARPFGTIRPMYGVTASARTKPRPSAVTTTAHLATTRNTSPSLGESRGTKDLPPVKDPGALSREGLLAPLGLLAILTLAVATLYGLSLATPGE
Procedure, shortened: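 Cleavage of 60 nM TEX615/quencher-labelled dsDNA in pH 7.4 Tris buffer with 5 mM MgCl2, 1.0% DMSO, run 18 hours at 25° C, EDTA-quenched; fluorescence read-out.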

[2] = biological target: T2, full length mouse TREX1 (Mus musculus, UniProt Q91XB0); experiment: mTREX1 Biochemical Assay (fluorescence, dsDNA substrate degradation); settings: biochemical, read-out: mTREX1 IC50
T2 construct: N-terminally His-Tev tagged full length mouse TREX1; made in house; host or cells: E. coli
T2 sequence (Q91XB0 1-314): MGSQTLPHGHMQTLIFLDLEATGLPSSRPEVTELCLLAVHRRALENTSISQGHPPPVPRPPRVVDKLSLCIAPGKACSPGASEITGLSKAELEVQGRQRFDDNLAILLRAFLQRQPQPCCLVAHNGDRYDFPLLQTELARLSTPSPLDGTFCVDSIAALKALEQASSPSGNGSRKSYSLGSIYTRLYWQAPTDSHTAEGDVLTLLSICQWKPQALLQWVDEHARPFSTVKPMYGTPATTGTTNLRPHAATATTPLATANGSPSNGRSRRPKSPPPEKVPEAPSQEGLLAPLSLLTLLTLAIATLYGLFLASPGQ
Procedure, shortened: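 Reaction run 18 h at 25° C. with 60 nM TEX615/quencher-labelled dsDNA and 6 pM mouse TREX1 in Tris buffer (pH 7.4, 5 mM MgCl2, 1.0% DMSO), enzyme having sat 4 h with compound across 10 concentrations. EDTA quench; substrate degradation measured as fluorescence increase.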

[3] = biological target: T3, human TREX2 (residues M44-A279) (Homo sapiens, UniProt Q9BQ50); experiment: hTREX2 Biochemical Assay (fluorescence, dsDNA substrate degradation); settings: biochemical selectivity for hTREX1 vs hTREX2
T3 construct: human TREX2 (residues M44-A279, expressed in E. coli); made in house; host or cells: E. coli
T3 sequence (Q9BQ50 44-279 isoform Q9BQ50-1): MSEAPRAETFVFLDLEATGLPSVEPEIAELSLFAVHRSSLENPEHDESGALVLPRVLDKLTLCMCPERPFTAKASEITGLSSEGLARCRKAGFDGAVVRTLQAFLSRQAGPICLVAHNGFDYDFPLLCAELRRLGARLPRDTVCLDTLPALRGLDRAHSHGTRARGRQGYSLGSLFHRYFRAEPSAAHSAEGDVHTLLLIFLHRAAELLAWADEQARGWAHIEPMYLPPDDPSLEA
Procedure, shortened: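 N-His-Tev E. coli enzyme (50 pM) pre-incubated with compound 4 h at 25 °C, then 60 nM TEX615/quencher dsDNA added; 18 h at 25 °C, pH 7.4 Tris buffer with 5 mM MgCl2, 1.0% DMSO. EDTA-quenched; fluorescence 570 ex/615 em from liberated fluorophore, 10-point dose-response.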

[4] = biological target: T4, hTREX1 (Homo sapiens, UniProt Q9NSU2); experiment: hTREX1 HCT116 Cell Assay (HCT116 dual cells, Lucia luciferase reporter of Type I interferon induction); type: cell-based; settings: TREX1i 4 h before pBR322/BstNI transfection, read after 48 h
T4 construct: host or cells: HCT116 dual cells
T4 sequence (Q9NSU2 1-314): T1 sequence (Q9NSU2 1-314)
Procedure, shortened: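 HCT116 dual cells carrying an ISRE-type STAT1/STAT2-driven secreted Lucia luciferase reporter were pretreated with TREX1 inhibitor for 4 h (≤0.1% DMSO), then transfected with pBR322/BstNI DNA (100 ng/well, Lipofectamine LTX). Luciferase in medium read after 48 h at 37 °C.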

Structure (SMILES) | IC50 [1] [nM] | IC50 [2] [nM] | IC50 [4] [nM] | hTREX1 vs hTREX2 selectivity [3]
CC(C)c1cnn(C(c2ccccc2Cl)C(C)c2nc(C(=O)Nc3cnoc3)c(O)c(=O)n2C)c1 (single isomer, unassigned) [Example 135 D1E1] | 1 to 10 | 1 to 10 | > 100 | B (B = 25 to 50-fold selective for hTREX1)
CC(c1nc(C(=O)Nc2cnoc2)c(O)c(=O)n1C)C(c1ccccc1Cl)n1cc(C(F)(F)F)cn1 (single isomer, unassigned) [Example 139 D1E1] | 1 to 10 | 1 to 10 | > 100 | A (A = <25 fold selective for hTREX1)
CC(c1nc(C(=O)Nc2cnoc2)c(O)c(=O)n1C)C(c1ccccc1Cl)n1cc2ccccc2n1 (single isomer, unassigned) [Example 141 D1E1] | 1 to 10 | 1 to 10 | > 100 | A (A = <25 fold selective for hTREX1)
Cc1cnn(C(c2cc(F)ccc2Cl)C(C)c2nc(C(=O)Nc3cnoc3)c(O)c(=O)n2C)c1 (single isomer, unassigned) [Example 144 D1E2] | 1 to 10 | > 10 | > 100 | A (A = <25 fold selective for hTREX1)
Cc1ccnn1C(c1cc(F)ccc1Cl)C(C)c1nc(C(=O)Nc2cnoc2)c(O)c(=O)n1C (single isomer, unassigned) [Example 145 D1E1] | 1 to 10 | > 10 | 10 to 100 | B (B = 25 to 50-fold selective for hTREX1)
Cc1ccn(C(c2cc(F)ccc2Cl)C(C)c2nc(C(=O)Nc3cnoc3)c(O)c(=O)n2C)n1 (single isomer, unassigned) [Example 146 D1E1] | 1 to 10 | > 10 | > 100 | C (C = >50 fold selective for hTREX1)
CC(c1nc(C(=O)Nc2cnoc2)c(O)c(=O)n1C)C(c1cnn(C(F)(F)F)c1)c1ccccc1C#N (single isomer, unassigned) [Example 151 D1E1] | < 1 | < 1 | 10 to 100 | B (B = 25 to 50-fold selective for hTREX1)
CC(c1nc(C(=O)Nc2cnoc2)c(O)c(=O)n1C)C(c1cnn(C(F)(F)F)c1)c1ccccc1C#N (single isomer, unassigned) [Example 151 D2E1] | 1 to 10 | > 10 | > 100 | B (B = 25 to 50-fold selective for hTREX1)
CC(c1nc(C(=O)Nc2cnoc2)c(O)c(=O)n1C)C(c1ccccc1Cl)c1nncn1C (single isomer, unassigned) [Example 152 D1E1] | > 10 | > 10 | > 100 | B (B = 25 to 50-fold selective for hTREX1)
Cc1nn(C)c(C)c1C(c1cc(F)ccc1Cl)C(C)c1nc(C(=O)Nc2cnoc2)c(O)c(=O)n1C (single isomer, unassigned) [Example 154 D1E1] | < 1 | 1 to 10 | > 100 | B (B = 25 to 50-fold selective for hTREX1)
CC(c1nc(C(=O)Nc2cnoc2)c(O)c(=O)n1C)C(c1ccccc1)c1cccnc1C#N (single isomer, unassigned) [Example 155 D1E2] | 1 to 10 | 1 to 10 | > 100 | C (C = >50 fold selective for hTREX1)
CC(c1nc(C(=O)Nc2cnoc2)c(O)c(=O)n1C)C(c1ccccc1)c1cccnc1C#N (single isomer, unassigned) [Example 155 D2E1] | < 1 | > 10 | 10 to 100 | C (C = >50 fold selective for hTREX1)
Cc1nnc(C(c2ccccc2Cl)C(C)c2nc(C(=O)Nc3cnoc3)c(O)c(=O)n2C)o1 (single isomer, unassigned) [Example 156 D1E1] | > 10 | > 10 | > 100 | A (A = <25 fold selective for hTREX1)

Further lines, with some results ahead:

IC50 [1] [nM] | IC50 [2] [nM] | IC50 [4] [nM] | Structure (SMILES) | hTREX1 vs hTREX2 selectivity [3]
< 1 | > 10 | 10 to 100 | Cc1cc(C)n(C(c2ccccc2Cl)C(C)c2nc(C(=O)Nc3cnoc3)c(O)c(=O)n2C)n1 (single isomer, unassigned) [Example 136 D1E2] | B (B = 25 to 50-fold selective for hTREX1)
< 1 | 1 to 10 | < 10 | Cc1cc(C)n(C(c2ccccc2C#N)C(C)c2nc(C(=O)Nc3cnoc3)c(O)c(=O)n2C)n1 (single isomer, unassigned) [Example 137 D1E1] | B (B = 25 to 50-fold selective for hTREX1)
< 1 | 1 to 10 | 10 to 100 | Cc1ccnn1C(c1ccccc1C#N)C(C)c1nc(C(=O)Nc2cnoc2)c(O)c(=O)n1C (single isomer, unassigned) [Example 138 D1E1] | B (B = 25 to 50-fold selective for hTREX1)
< 1 | 1 to 10 | 10 to 100 | CC(c1nc(C(=O)Nc2cnoc2)c(O)c(=O)n1C)C(c1ccccc1Cl)n1nccc1C#N (single isomer, unassigned) [Example 140 D1E1] | B (B = 25 to 50-fold selective for hTREX1)
< 1 | 1 to 10 | > 100 | Cc1cn(C(c2ccccc2Cl)C(C)c2nc(C(=O)Nc3cnoc3)c(O)c(=O)n2C)cn1 (single isomer, unassigned) [Example 142 D1E2] | A (A = <25 fold selective for hTREX1)
< 1 | 1 to 10 | 10 to 100 | CC(c1nc(C(=O)Nc2cnoc2)c(O)c(=O)n1C)C(c1ccccc1Cl)n1cnc2ccccc21 (single isomer, unassigned) [Example 143 D1E1] | B (B = 25 to 50-fold selective for hTREX1)
< 1 | > 10 | 10 to 100 | CC(c1nc(C(=O)Nc2cnoc2)c(O)c(=O)n1C)C(c1ccccc1Cl)n1nccc1C(N)=O (single isomer, unassigned) [Example 147 D1E1] | C (C = >50 fold selective for hTREX1)
